# Reference: PubChem BioAssay (NCI)
#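 How tested: cells in 96-well plates exposed to compound for 48 hours at five concentrations. TGI marks complete inhibition of growth.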
# Assays:
# Assay in all cases: NCI anticancer screen, dose series, 48 h
# [1] = test system: UACC-62 melanoma
# [2] = test system: RPMI-8226 leukemia
# [3] = test system: XF 498 CNS
# [4] = test system: M19-MEL melanoma
# [5] = test system: HOP-92 NSCLC
# [6] = test system: SK-MEL-28 melanoma
# [7] = test system: SF-539 CNS
# [8] = test system: IGROV1 ovarian
# [9] = test system: UO-31 renal
# [10] = test system: A498 renal
# [11] = test system: DMS 114 small cell lung
# [12] = test system: LXFL 529 NSCLC
# [13] = test system: MOLT-4 leukemia
# [14] = test system: SF-268 CNS
# [15] = test system: DMS 273 small cell lung
# [16] = test system: SR leukemia
# [17] = test system: MALME-3M melanoma
# [18] = test system: SK-OV-3 ovarian
# [19] = test system: OVCAR-4 ovarian
# [20] = test system: SK-MEL-2 melanoma
# [21] = test system: HL-60(TB) leukemia
# [22] = test system: SNB-75 CNS
# [23] = test system: SNB-78 CNS
# [24] = test system: K-562 leukemia
# [25] = test system: HCC-2998 colon
# [26] = test system: HOP-62 NSCLC
# [27] = test system: NCI-H226 lung
# [28] = test system: NCI-H23 lung
# [29] = test system: ACHN renal
# [30] = test system: DLD-1 colon
# [31] = test system: SN12C renal
# [32] = test system: M14 melanoma
# [33] = test system: HCT-116 colon
# [34] = test system: CCRF-CEM leukemia
# [35] = test system: CAKI-1 renal
# [36] = test system: NCI-H522 lung
# [37] = test system: COLO 205 colon
# [38] = test system: 786-0 renal
# [39] = test system: NCI-H460 lung
# [40] = test system: A549 NSCLC
# [41] = test system: KM20L2 colon
# [42] = test system: HT29 colon
# [43] = test system: TK-10 renal
# [44] = test system: LOX IMVI melanoma
# [45] = test system: UACC-257 melanoma
# [46] = test system: EKVX NSCLC
# [47] = test system: SW-620 colon
# [48] = test system: RXF 393 renal
# [49] = test system: SF-295 CNS
# [50] = test system: U251 CNS
# [51] = test system: HCT-15 colon
# [52] = test system: SNB-19 CNS
# [53] = test system: SK-MEL-5 melanoma
# [54] = test system: KM12 colon
# [55] = test system: OVCAR-8 ovarian
# [56] = test system: OVCAR-3 ovarian
# [57] = test system: OVCAR-5 ovarian
# [58] = test system: HOP-18 NSCLC
smiles,measurement,setting,value
Cc1ncc(CBr)c(CBr)c1O,TGI,[1],> 100 µM
same,TGI,[2],> 100 µM
same,TGI,[3],> 100 µM
same,TGI,[4],> 100 µM
same,TGI,[5],> 100 µM
same,TGI,[6],> 100 µM
same,TGI,[7],> 100 µM
same,TGI,[8],> 100 µM
same,TGI,[9],> 100 µM
same,TGI,[10],> 100 µM
same,TGI,[11],> 100 µM
same,TGI,[12],> 100 µM
same,TGI,[13],> 100 µM
same,TGI,[14],> 100 µM
same,TGI,[15],> 100 µM
same,TGI,[16],> 100 µM
same,TGI,[17],> 100 µM
same,TGI,[18],> 100 µM
same,TGI,[19],> 100 µM
same,TGI,[20],> 100 µM
same,TGI,[21],> 100 µM
same,TGI,[22],> 100 µM
same,TGI,[23],> 100 µM
same,TGI,[24],> 100 µM
same,TGI,[25],> 100 µM
same,TGI,[26],> 100 µM
same,TGI,[27],> 100 µM
same,TGI,[28],> 100 µM
same,TGI,[29],> 100 µM
same,TGI,[30],> 100 µM
same,TGI,[31],> 100 µM
same,TGI,[32],> 100 µM
same,TGI,[33],> 100 µM
same,TGI,[34],> 100 µM
same,TGI,[35],> 100 µM
same,TGI,[36],> 100 µM
same,TGI,[37],> 100 µM
same,TGI,[38],> 100 µM
Cc1cc(C)nc(NS(=O)(=O)c2ccc(NC(=O)COC(=O)c3cccc4c(=O)c5ccccc5[nH]c34)cc2)n1,TGI,[1],34.3 µM
same,TGI,[2],> 100 µM
same,TGI,[3],> 100 µM
same,TGI,[4],42.1 µM
same,TGI,[39],> 100 µM
same,TGI,[5],60.3 µM
same,TGI,[6],> 100 µM
same,TGI,[7],34 µM
same,TGI,[8],> 100 µM
same,TGI,[9],> 100 µM
same,TGI,[10],> 100 µM
same,TGI,[11],> 100 µM
same,TGI,[12],> 100 µM
same,TGI,[40],> 100 µM
same,TGI,[41],> 100 µM
same,TGI,[13],84.8 µM
same,TGI,[14],> 100 µM
same,TGI,[42],> 100 µM
same,TGI,[43],> 100 µM
same,TGI,[44],40.7 µM
same,TGI,[15],> 100 µM
same,TGI,[16],76.4 µM
same,TGI,[45],65.1 µM
same,TGI,[46],> 100 µM
same,TGI,[47],83.9 µM
same,TGI,[17],73 µM
same,TGI,[18],> 100 µM
same,TGI,[19],> 100 µM
same,TGI,[48],74.5 µM
same,TGI,[21],63.9 µM
same,TGI,[49],95.5 µM
same,TGI,[50],38.4 µM
same,TGI,[51],> 100 µM
same,TGI,[22],73.5 µM
same,TGI,[23],> 100 µM
same,TGI,[24],98.8 µM
same,TGI,[52],77.2 µM
same,TGI,[25],37.9 µM
same,TGI,[26],47.4 µM
same,TGI,[27],> 100 µM
same,TGI,[28],> 100 µM
same,TGI,[53],> 100 µM
same,TGI,[54],38.8 µM
same,TGI,[55],> 100 µM
same,TGI,[29],> 100 µM
same,TGI,[30],> 100 µM
same,TGI,[56],51.4 µM
same,TGI,[31],> 100 µM
same,TGI,[32],> 100 µM
same,TGI,[33],55 µM
same,TGI,[34],87.7 µM
same,TGI,[35],> 100 µM
same,TGI,[57],58.9 µM
same,TGI,[36],70.9 µM
same,TGI,[37],> 100 µM
same,TGI,[38],58.9 µM
C[C@]12CCc3nn(-c4ccccc4)nc3C1CC[C@@H]1C2CC[C@]2(C)C(=O)CCC12 (stereo partly specified),TGI,[1],> 100 µM
same,TGI,[2],> 100 µM
same,TGI,[4],> 100 µM
same,TGI,[39],> 100 µM
same,TGI,[5],> 100 µM
same,TGI,[6],> 100 µM
same,TGI,[7],> 100 µM
same,TGI,[8],> 100 µM
same,TGI,[9],> 100 µM
same,TGI,[11],> 100 µM
same,TGI,[12],> 100 µM
same,TGI,[40],> 100 µM
same,TGI,[41],> 100 µM
same,TGI,[13],> 100 µM
same,TGI,[14],> 100 µM
same,TGI,[42],> 100 µM
same,TGI,[43],> 100 µM
same,TGI,[44],> 100 µM
same,TGI,[15],> 100 µM
same,TGI,[16],> 100 µM
same,TGI,[45],> 100 µM
same,TGI,[46],> 100 µM
same,TGI,[47],> 100 µM
same,TGI,[17],> 100 µM
same,TGI,[18],> 100 µM
same,TGI,[19],> 100 µM
same,TGI,[20],> 100 µM
same,TGI,[48],> 100 µM
same,TGI,[21],> 100 µM
same,TGI,[49],> 100 µM
same,TGI,[50],> 100 µM
same,TGI,[51],> 100 µM
same,TGI,[22],> 100 µM
same,TGI,[23],> 100 µM
same,TGI,[24],> 100 µM
same,TGI,[52],> 100 µM
same,TGI,[25],> 100 µM
same,TGI,[26],> 100 µM
same,TGI,[27],> 100 µM
same,TGI,[28],> 100 µM
same,TGI,[53],> 100 µM
same,TGI,[54],> 100 µM
same,TGI,[55],> 100 µM
same,TGI,[29],> 100 µM
same,TGI,[30],> 100 µM
same,TGI,[56],> 100 µM
same,TGI,[31],> 100 µM
same,TGI,[58],> 100 µM
same,TGI,[32],> 100 µM
same,TGI,[33],> 100 µM
same,TGI,[34],> 100 µM
same,TGI,[35],> 100 µM
same,TGI,[57],> 100 µM
same,TGI,[36],> 100 µM
same,TGI,[37],> 100 µM
same,TGI,[38],> 100 µM
O=c1n(CC2CS2)c2ccccc2n1CC1CS1 (stereo unspecified),TGI,[1],> 100 µM
same,TGI,[2],88.6 µM
same,TGI,[3],> 100 µM
same,TGI,[4],> 100 µM
same,TGI,[5],> 100 µM
same,TGI,[8],> 100 µM
same,TGI,[11],> 100 µM
same,TGI,[12],> 100 µM
same,TGI,[13],69.1 µM
same,TGI,[14],> 100 µM
same,TGI,[44],> 100 µM
same,TGI,[15],> 100 µM
same,TGI,[16],> 100 µM
same,TGI,[46],> 100 µM
same,TGI,[17],74.4 µM
same,TGI,[18],> 100 µM
same,TGI,[19],> 100 µM
same,TGI,[20],> 100 µM
same,TGI,[21],> 100 µM
same,TGI,[51],> 100 µM
same,TGI,[22],> 100 µM
same,TGI,[24],> 100 µM
same,TGI,[25],> 100 µM
same,TGI,[26],> 100 µM
same,TGI,[54],> 100 µM
same,TGI,[29],> 100 µM
same,TGI,[56],> 100 µM
same,TGI,[31],> 100 µM
same,TGI,[32],> 100 µM
same,TGI,[33],70.1 µM
same,TGI,[34],79.7 µM
same,TGI,[35],> 100 µM
same,TGI,[36],> 100 µM
same,TGI,[37],> 100 µM
CCCC(C(=O)OC)C1N=C(NC#N)N(Cc2ccccc2)C1=O (stereo unspecified),TGI,[1],> 100 µM
same,TGI,[2],> 100 µM
same,TGI,[3],> 100 µM
same,TGI,[4],> 100 µM
same,TGI,[39],> 100 µM
same,TGI,[6],> 100 µM
same,TGI,[8],> 100 µM
same,TGI,[9],> 100 µM
same,TGI,[11],> 100 µM
same,TGI,[12],> 100 µM
same,TGI,[40],> 100 µM
same,TGI,[41],> 100 µM
same,TGI,[13],> 100 µM
same,TGI,[14],> 100 µM
same,TGI,[42],> 100 µM
same,TGI,[43],> 100 µM
same,TGI,[44],> 100 µM
same,TGI,[15],> 100 µM
same,TGI,[16],> 100 µM
same,TGI,[45],> 100 µM
same,TGI,[46],> 100 µM
same,TGI,[47],> 100 µM
same,TGI,[17],> 100 µM
same,TGI,[18],> 100 µM
same,TGI,[19],> 100 µM
same,TGI,[20],> 100 µM
same,TGI,[48],> 100 µM
same,TGI,[21],> 100 µM
same,TGI,[49],> 100 µM
same,TGI,[50],> 100 µM
same,TGI,[51],> 100 µM
same,TGI,[22],81.1 µM
same,TGI,[24],> 100 µM
same,TGI,[52],> 100 µM
same,TGI,[25],> 100 µM
same,TGI,[26],> 100 µM
same,TGI,[28],> 100 µM
same,TGI,[53],> 100 µM
same,TGI,[54],> 100 µM
same,TGI,[55],> 100 µM
same,TGI,[29],> 100 µM
same,TGI,[30],> 100 µM
same,TGI,[56],> 100 µM
same,TGI,[31],> 100 µM
same,TGI,[32],> 100 µM
same,TGI,[33],> 100 µM
same,TGI,[34],> 100 µM
same,TGI,[35],> 100 µM
same,TGI,[57],> 100 µM
same,TGI,[36],> 100 µM
same,TGI,[37],> 100 µM
same,TGI,[38],> 100 µM
